In paper PMC8287724, “Reducing Auditory Nerve Excitability by Acute Antagonism of Ca^2+-Permeable AMPA Receptors” (Frontiers in Synaptic Neuroscience, 2021):
Where “and” joins values, the source holds several entries; their conditions need not be identical. Equal entries are not always repeated. Where two headings read alike, the source gives them in different places.

Assay: Drug levels in blood, perilymph and CSF after IP injection (LC/MS)
Type: in vivo, guinea pig
Settings: for Kp / half-life: NIH-strain, pigmented, guinea pig; for Kp: ip; for half-life: blood, in vivo, IP injection: IEM-1460 13.5 mg/kg, IEM-1925 8 mg/kg, estimated from PK data, read-out: elimination half-life in blood
Procedure: After at least 30 min of baseline data, 1 mL of Lactated Ringer's was injected into the peritoneal space of the guinea pig as a vehicle control. Then, 13.5 mg/kg IEM-1460 or 8 mg/kg IEM-1925 in Lactated Ringer's was injected into the peritoneal space of the guinea pig. The entire experiment took ~3 h to complete: 1 h for anesthetic induction and surgery, 30 min for sound calibration and CAP threshold measurements, and 2 h for drug delivery, DPOAE and CAP measurements. After collection of perilymph and CSF, the animal was euthanized via saturated KCl delivered directly into the jugular vein.
General surgical scissors were used to clip the toenail at a 45° angle to collect blood with a premarked glass capillary tube during the baseline period and after drug injection. The exact volume was determined by measurement of the fluid meniscus in a calibrated capillary tube. […] Complete details used to perform apical fluid sampling are presented elsewhere and are only briefly provided here (Mynatt et al., [2006]). Similar to the apical cochlear fenestration used to deliver drugs (described above), the mucosa on the cochlea was cleared from two apical turns using a small cotton swab, and the bone at the apex was allowed to dry. A droplet of thin cyanoacrylate adhesive was applied and cup formed over the apex with silicone adhesive. A small perforation (50–100 μm diameter) was then made in the bone over scala vestibuli at the apex using a 30° pick. Upon perforation, fluid immediately started emerging, driven by intralabyrinthine pressure from CSF, and formed a bead within the hydrophobic silicone cup. A calibrated 5 μL capillary micropipette (VWR #5342-706, S. Plainfield, NJ) was held by hand in contact with the fluid at the apex, so that fluid was drawn into the capillary in ~30 s. The exact volume was determined by measurement of the fluid meniscus. Perilymph from the opposite ear was sampled prior to euthanizing the animal, then ~2 μL of CSF was aspirated by inserting a micropipette through the dura mater into the cisterna magna. After the fluid meniscus from the capillary tube was measured, the capillary tube was then flushed with 25.0 μL 50:50 methanol-water solvent to ensure that all the sample was collected.
The concentration of IEM-1460 in perilymph, blood, and CSF was analyzed using LC-MS (Confluence Life Sciences, St. Louis, MO). LC-MS-grade acetonitrile, LC-grade methanol, formic acid, sodium hydroxide 0.1 M, perfluoroheptanoic acid, formic acid, and hydrochloric acid were purchased from Sigma-Aldrich (USA). Deionized water (R > 18 MΩ/cm, TOC <10 ppb) was used throughout all these experiments. IEM-1460 and IEM-1925 were purchased from Tocris Bioscience (Bristol, UK). A 10 mM stock solution was made for both IEM-1460 and IEM-1925 in 50% aqueous methanol. For calibration of the specific compound concentration in the tested matrix (i.e., plasma or CSF/perilymph), a set of standard solutions were prepared by diluting concentrated stock solutions with 50% aqueous methanol into guinea pig plasma matrix or artificial perilymph (in mM: 127.5 NaCl, 3.5 KCl, 25 NaHCO3, 1.3 CaCl2, 1.2 MgCl2, 0.75 NaH2PO4, and 11 glucose) to have a set of standards from 1 to 300 ng/mL. […] Calibration standard samples using verapamil were prepared for each batch of samples ranging from 1 to 300 ng/mL and injected at both the beginning and end of the sample sequence. The methodology for LC-MS for blood has previously been described (Da Silva et al., [2016]; Guiraud et al., [2017]). Separation and analysis were performed on a LC instrument (Exion LC AD, AB SCIEX, USA) coupled to a Sciex QTRAP5500 with TurboV Ion Source (SCIEX, Concord, ON, Canada) equipped with a heated electrospray ionization (H-ESI) source. Chromatographic separation was obtained using a gradient elution on a reversed-phase Kinetex F5 (Phenomenex, Aschaffenburg, Germany) column (2.1 × 50 mm), packed with 1.7 μm diameter particles. […]

| Compound | time to plateau of blood plasma concentration (IP 13.5 mg/kg) | concentration in blood plasma at plateau (IP 13.5 mg/kg, average, N = 3) | concentration in blood (IP 13.5 mg/kg, converted from 7 μg/mL) | perilymph level as % of blood level (IP 13.5 mg/kg, ~2 h after injection, N = 3, 13.5 mg/kg) | concentration in perilymph (IP 13.5 mg/kg, ~2 h after injection, from blood level and perilymph/blood ratio, 13.5 mg/kg) | Kp (CSF relative to blood, 13.5 mg/kg, IP 13.5 mg/kg, ~2 h after injection, N = 3, read-out: CSF level as % of blood level) | half-life | Kp (perilymph relative to blood, 13.5 mg/kg, IP 13.5 mg/kg, ~2 h after injection, N = 3, read-out: perilymph level as % of blood level) | LC/MS detection in perilymph or CSF (IP 8 mg/kg) | levels detected in blood (IP 8 mg/kg) |
| --- | --- | --- | --- | --- | --- | --- | --- | --- | --- | --- |
| C[N+](C)(C)CCCCCNCC12CC3CC(CC(C3)C1)C2 [IEM-1460] | ≤ 30 min | ~ 7 μg/mL | 23.8 µM | 17–45% | 4–11 μM and ~ 7 μM | 0.08 to 0.23 | 1.97 h | ~0.3 | – | – |
| NCCCCCNC1(c2ccccc2)CCCCC1 [IEM-1925] | – | – | – | – | – | – | 1.13 h | – | did not detect significant | Very low levels |
